Assays:
U-937 (lymphoma) = assay: 72-hour IC50 toward U-937 cancer cell line; type: cell-based; settings: Homo sapiens
From the text: (§1) Compounds prepared according to the methods described herein have been screened for activity against various cancer cell lines.

HeLa (cervical) = assay: 72-hour IC50 toward HeLa cancer cell line; type: cell-based; settings: Homo sapiens
From the text: as §1

H1299 (NSC lung) = assay: 72-hour IC50 toward H1299 cancer cell line; type: cell-based; settings: Homo sapiens, NCI-H1299
From the text: as §1

MCF7 (breast) = assay: 72-hour IC50 toward MCF7 cancer cell line; type: cell-based; settings: Homo sapiens
From the text: as §1

B16F10 (melanoma) = assay: 72-hour IC50 toward B16F10 cancer cell line; type: cell-based; settings: Mus musculus, B16-F10
From the text: as §1

EL-4 (lymphoma) = assay: 72-hour IC50 toward EL-4 cancer cell line; type: cell-based
From the text: as §1

A549 (lung) = assay: 72-hour IC50 toward A549 cancer cell line; type: cell-based; settings: Homo sapiens
From the text: as §1

caspase = assay: Western blot for caspase activation; type: cell-based; settings: Western blot (FIG. 11)
[1] = tested on: EL-4 syngeneic mouse model; assay: Tumor volume in EL-4 syngeneic mouse model; type: in vivo; settings: 2 treatments at 30 mg/kg over one week and a final treatment at 20 mg/kg after the first week, p=0.023, n=8
U-937 cells = assay: Non-apoptotic cell death of U-937 cells; type: cell-based; settings: U-937 cells (FIG. 12)
From the text: FIG. 12. Non-apoptotic cell death of U-937 cells by compound GA-4.

Row | IC50 (U-937 (lymphoma)) | IC50 (HeLa (cervical)) | IC50 (H1299 (NSC lung)) | IC50 (MCF7 (breast)) | IC50 (B16F10 (melanoma)) | IC50 (EL-4 (lymphoma)) | IC50 (A549 (lung)) | Structure (SMILES) | caspase activation (caspase) | reduction in tumor volume [1] | non-apoptotic cell death (U-937 cells)
1 | 0.56 ± 0.18 µM | 1.14 ± 0.03 µM | 2.4 ± 0.8 µM | 4.8 ± 1.3 µM | 1 ± 0.4 µM | 0.85 ± 0.09 µM | 5.9 ± 0.05 µM | C=C1C[C@]23C[C@@]1(O)CC[C@H]2[C@@]12C=CC(=O)C(C)(C(=O)O1)[C@H]2[C@@H]3C(=O)OC [GA-4] | lack of caspase activation | 43% | remarkable amounts of non-apoptotic cell death
2 | 1.78 ± 0.09 µM | 4.9 ± 0.09 µM |  |  |  |  | 4.5 ± 0.09 µM | COC(=O)[C@H]1[C@@H]2C3(C)C(=O)C=C[C@@]2(OC3=O)[C@@H]2CC[C@@]3(CBr)C[C@]21CC3=O [GA-81] |  |  | 
